These are literature values, as cited in patent publication US20020072062A1, “Chloramphenicol biosynthetic pathway and gene cluster” (Diversa Corporation, priority 1999, published 2002).

Each structure is given as a SMILES string. Read-outs that look alike come from different tables or passages of the source.

Data set [1] deals with Cm-sensitive Micrococcus luteus. As to conditions: against Cm-sensitive Micrococcus luteus; metabolite of Cm from S. lividans M252 pJV4 transformants.
Data set [2] relates to Streptomyces venezuelae ISP5230.

As for `O=C(NC(COP(=O)(O)O)C(O)c1ccc([N+](=O)[O-])cc1)C(Cl)Cl` (stereo not drawn) [3′-O-phospho-Cm], the inhibitory activity entry in data set [1] was “negligible inhibitory activity”.
For the compound `Nc1ccc(S(N)(=O)=O)cc1` [sulfanilamide], the sulfanilamide resistance in data set [2] (before replacement of chromosomal pabAB) was 25 micrograms mL-1; in data set [2] (chromosomal pabAB replaced with copy disrupted by apramycin resistance gene), 5 micrograms mL-1.
